These results are taken from US10435399B2, “HDAC6 inhibitory heterocyclic compound” (TAKEDA PHARMACEUTICAL COMPANY LIMITED, priority 2017, dated 2019).

For the first assay, the target named is T1, HDAC6 enzyme (Homo sapiens, UniProt Q9UBN7).
T1 construct: transducing full length HDAC6 gene into Sf-9 insect cells; GST; purchased SignalChem; host or cells: Sf-9 insect cells
T1 sequence (Q9UBN7 1-1215): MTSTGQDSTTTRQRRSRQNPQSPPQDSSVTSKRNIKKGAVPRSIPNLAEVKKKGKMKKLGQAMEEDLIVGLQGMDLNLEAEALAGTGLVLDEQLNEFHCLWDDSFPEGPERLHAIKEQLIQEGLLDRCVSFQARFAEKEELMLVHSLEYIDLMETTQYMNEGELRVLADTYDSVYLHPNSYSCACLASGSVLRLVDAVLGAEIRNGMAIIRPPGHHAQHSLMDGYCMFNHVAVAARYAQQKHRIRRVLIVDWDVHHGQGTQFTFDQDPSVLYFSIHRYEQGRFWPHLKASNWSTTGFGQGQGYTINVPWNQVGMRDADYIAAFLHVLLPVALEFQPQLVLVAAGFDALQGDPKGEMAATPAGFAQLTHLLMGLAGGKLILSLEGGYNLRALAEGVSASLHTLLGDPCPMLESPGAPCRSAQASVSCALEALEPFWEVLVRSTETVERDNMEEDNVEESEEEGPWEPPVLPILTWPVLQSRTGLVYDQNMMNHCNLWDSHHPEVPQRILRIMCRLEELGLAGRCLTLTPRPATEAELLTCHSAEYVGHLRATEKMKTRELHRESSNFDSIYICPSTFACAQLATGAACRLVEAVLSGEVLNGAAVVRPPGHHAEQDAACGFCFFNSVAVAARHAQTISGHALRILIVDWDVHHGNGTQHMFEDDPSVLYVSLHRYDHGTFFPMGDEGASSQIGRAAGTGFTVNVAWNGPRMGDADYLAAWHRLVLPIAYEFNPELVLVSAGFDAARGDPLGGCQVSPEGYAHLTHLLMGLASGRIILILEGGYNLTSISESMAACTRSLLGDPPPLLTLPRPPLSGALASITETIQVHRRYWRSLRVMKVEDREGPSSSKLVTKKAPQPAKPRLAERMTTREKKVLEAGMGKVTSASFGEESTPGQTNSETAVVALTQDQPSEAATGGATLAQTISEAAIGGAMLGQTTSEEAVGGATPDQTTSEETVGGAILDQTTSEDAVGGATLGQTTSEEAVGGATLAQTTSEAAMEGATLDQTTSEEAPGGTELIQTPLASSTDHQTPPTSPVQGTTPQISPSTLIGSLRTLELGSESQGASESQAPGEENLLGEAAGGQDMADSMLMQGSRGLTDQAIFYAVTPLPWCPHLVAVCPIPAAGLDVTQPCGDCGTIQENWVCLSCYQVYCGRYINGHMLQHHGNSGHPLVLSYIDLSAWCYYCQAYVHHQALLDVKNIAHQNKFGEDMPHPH
The assay can be described thus: HDAC6 enzyme inhibitory activity (HDAC-Glo I/II Assay kit). Type of assay: biochemical. Particulars: 10 μM; wells without enzyme = 100% inhibition. The procedure: HDAC6 enzyme prepared by transducing full length HDAC6 gene into Sf-9 insect cells and purifying by GST affinity column were purchased from SignalChem. Using this enzyme, HDAC6 enzyme inhibitory activities of the compound of the present invention were evaluated. Enzymes were used after preserved at −70° C. HDAC6 enzyme inhibitory activity of the compound of the present invention was measured using HDAC-Glo™ I/II Assay kit (Promega) according to the following experimental method. The test compound diluted with assay buffer (24 mM Tris-HCl (pH 7.5), 1 mM MgCl2, 0.35 mM KCl, 135 mM NaCl, 0.6 mM Glutathione, 0.01% Tween-20) was added to a 384-well plate by each 2 μL. Then, HDAC6 enzyme solution diluted with assay buffer was added thereto by each 4 μL, and the plate was incubated at room temperature for 60 min. After incubated, HDAC substrate-Developer solution prepared according to Promega protocol attached to the assay kit was added to the 384-well plate by each 2 μL, and the enzyme reaction was started. After reacting at room temperature for 20 min, luminescence level was measured using plate reader Envision (PerkinElmer). The inhibitory activity of each compound of Example was calculated as a relative activity value when luminescence level in wells without enzyme is considered as 100% inhibition.
For the molecule `O=C1c2cc(-c3nnc(C(F)F)o3)ccc2CN1[C@@H]1CCCC[C@H]1n1cccn1` (relative stereo) [Example 529, 6-(5-(difluoromethyl)-1,3,4-oxadiazol-2-yl)-2-((1R*,2R*)-2-(1H-pyrazol-1-yl)cyclohexyl)isoindolin-1-one (optical isomer)], the “HDAC6 inhibitory rate (%) (10 μM)” value is 100%. Still for that read-out and setting: the value for `O=C1c2cc(-c3nnc(C(F)F)o3)ccc2CN1[C@H]1CCCC[C@H]1n1cccn1` (relative stereo) [Example 543, 6-(5-(difluoromethyl)-1,3,4-oxadiazol-2-yl)-2-((1S*,2R*)-2-(1H-pyrazol-1-yl)cyclohexyl)isoindolin-1-one (optical isomer)] was 100%; that for `COC(=O)N1CC[C@@H](c2ccc(F)cc2)[C@H](N2Cc3ccc(-c4nnc(C(F)F)o4)cc3C2=O)C1` (relative stereo) [Example 545, methyl (3S*,4S*)-3-(6-(5-(difluoromethyl)-1,3,4-oxadiazol-2-yl)-1-oxo-1,3-dihydro-2H-isoindol-2-yl)-4-(4-fluorophenyl)piperidine-1-carboxylate (optical isomer)] was 100%; that for `O=C1c2cc(-c3nnc(C(F)F)o3)cnc2CN1[C@@H]1CCCC[C@H]1Oc1ccc(F)cc1` (relative stereo) [Example 552, 3-(5-(difluoromethyl)-1,3,4-oxadiazol-2-yl)-6-((1R*,2R*)-2-(4-fluorophenoxy)cyclohexyl)-6,7-dihydro-5H-pyrrolo[3,4-b]pyridin-5-one (optical isomer)] was 100%. With `O=C1c2cc(-c3nnc(C(F)F)o3)cnc2CN1[C@@H]1CCCC[C@H]1c1ccccn1` (relative stereo) [Example 588, 3-(5-(difluoromethyl)-1,3,4-oxadiazol-2-yl)-6-((1R*,2R*)-2-(pyridin-2-yl)cyclohexyl)-6,7-dihydro-5H-pyrrolo[3,4-b]pyridin-5-one (optical isomer)], the “HDAC6 inhibitory rate (%) (10 μM)” value is listed as 100%.

Staying with this assay, now noted: 10 μM; wells without enzyme = 100% inhibition; read-out: HDAC6 inhibitory rate (%) (10 μM).
Regarding `O=C(C(F)F)N1CCC[C@H](N2Cc3ccc(-c4nnc(C(F)F)o4)cc3C2=O)[C@H]1c1ccc(F)cc1` (racemic) [Example 584, 2-((2RS,3SR)-1-(difluoroacetyl)-2-(4-fluorophenyl)piperidin-3-yl)-6-(5-(difluoromethyl)-1,3,4-oxadiazol-2-yl)isoindolin-1-one], the inhibition at 10 µM was determined as 100%. Same read-out and setting: the result for `O=C1c2cc(-c3nnc(C(F)F)o3)cnc2CN1[C@@H]1CCCC[C@H]1Oc1cncc(F)c1` (racemic) [Example 585, 3-(5-(difluoromethyl)-1,3,4-oxadiazol-2-yl)-6-((1RS,2RS)-2-((5-fluoropyridin-3-yl)oxy)cyclohexyl)-6,7-dihydro-5H-pyrrolo[3,4-b]pyridin-5-one] reads 100%. Still for that read-out and setting: the value for `CC(C)(C)OC(=O)N1CCC[C@@H](N2Cc3ccc(-c4nnc(C(F)F)o4)cc3C2=O)[C@H]1c1ccc(F)cc1` (racemic) [Example 618, tert-butyl (2RS,3RS)-3-(6-(5-(difluoromethyl)-1,3,4-oxadiazol-2-yl)-1-oxo-1,3-dihydro-2H-isoindol-2-yl)-2-(4-fluorophenyl)piperidine-1-carboxylate] was 99%. For `O=C1c2cc(-c3nnc(C(F)F)o3)ccc2CN1[C@@H]1CCCN[C@@H]1c1ccc(F)cc1` (racemic) [Example 620, 6-(5-(difluoromethyl)-1,3,4-oxadiazol-2-yl)-2-((2RS, 3RS)-2-(4-fluorophenyl)piperidin-3-yl)isoindolin-1-one], the inhibition at 10 µM turned out to be 101%. For the molecule `O=C1c2cc(-c3nnc(C(F)F)o3)ccc2CN1[C@@H]1CCCN(C(=O)C(F)F)[C@@H]1c1ccc(F)cc1` (racemic) [Example 624, 2-((2RS,3RS)-1-(difluoroacetyl)-2-(4-fluorophenyl)piperidin-3-yl)-6-(5-(difluoromethyl)-1,3,4-oxadiazol-2-yl)isoindolin-1-one], the inhibition at 10 µM worked out at 100%. In the case of `O=C1c2cc(-c3nnc(C(F)F)o3)cnc2CN1[C@@H]1CCCC[C@H]1c1ccn[nH]1` (racemic) [Example 654, 3-[5-(difluoromethyl)-1,3,4-oxadiazol-2-yl]-6-[(1RS,2RS)-2-(1H-pyrazol-5-yl)cyclohexyl]-6,7-dihydro-5H-pyrrolo[3,4-b]pyridin-5-one], the inhibition at 10 µM stood at 100%. Consider `O=C1c2cc(-c3nnc(C(F)F)o3)ccc2CN1[C@@H]1CCCC[C@H]1n1cccn1` (relative stereo) [Example 528, 6-(5-(difluoromethyl)-1,3,4-oxadiazol-2-yl)-2-((1R*,2R*)-2-(1H-pyrazol-1-yl)cyclohexyl)isoindolin-1-one (optical isomer)], for which the inhibition at 10 µM stood at 99%. `O=C1c2cc(-c3nnc(C(F)F)o3)cnc2CN1[C@@H]1CCCC[C@H]1n1cccn1` (relative stereo) [Example 539, 3-(5-(difluoromethyl)-1,3,4-oxadiazol-2-yl)-6-((1R*,2R*)-2-(1H-pyrazol-1-yl)cyclohexyl)-6,7-dihydro-5H-pyrrolo[3,4-b]pyridin-5-one (optical isomer)]: the inhibition at 10 µM turned out to be 99%.

As for `O=C1c2cc(-c3nnc(C(F)F)o3)ccc2CN1[C@H]1CCCC[C@H]1n1cccn1` (relative stereo) [Example 542, 6-(5-(difluoromethyl)-1,3,4-oxadiazol-2-yl)-2-((1S*,2R*)-2-(1H-pyrazol-1-yl)cyclohexyl)isoindolin-1-one (optical isomer)], the inhibition at 10 µM worked out at 90%.

Regarding `COC(=O)N1CC[C@@H](c2ccc(F)cc2)[C@H](N2Cc3ccc(-c4nnc(C(F)F)o4)cc3C2=O)C1` (relative stereo) [Example 544, methyl (3S*,4S*)-3-(6-(5-(difluoromethyl)-1,3,4-oxadiazol-2-yl)-1-oxo-1,3-dihydro-2H-isoindol-2-yl)-4-(4-fluorophenyl)piperidine-1-carboxylate (optical isomer)], the inhibition at 10 µM was 99%. For the molecule `O=C1c2cc(-c3nnc(C(F)F)o3)cnc2CN1[C@@H]1CCCC[C@H]1Oc1ccc(F)cc1` (relative stereo) [Example 551, 3-(5-(difluoromethyl)-1,3,4-oxadiazol-2-yl)-6-((1R*,2R*)-2-(4-fluorophenoxy)cyclohexyl)-6,7-dihydro-5H-pyrrolo[3,4-b]pyridin-5-one (optical isomer)], the inhibition at 10 µM came to 99%. On the same count and under the same terms, the result for `O=C1c2cc(-c3nnc(C(F)F)o3)ccc2CN1[C@@H]1CCC(F)(F)C[C@H]1c1ccccn1` (relative stereo) [Example 586, 6-(5-(difluoromethyl)-1,3,4-oxadiazol-2-yl)-2-((1R*,2R*)-4,4-difluoro-2-(pyridin-2-yl)cyclohexyl)isoindolin-1-one (Optical Isomer)] reads 100%; that for `O=C1c2cc(-c3nnc(C(F)F)o3)cnc2CN1[C@@H]1CCCC[C@H]1c1ccccn1` (relative stereo) [Example 587, 3-(5-(difluoromethyl)-1,3,4-oxadiazol-2-yl)-6-((1R*,2R*)-2-(pyridin-2-yl)cyclohexyl)-6,7-dihydro-5H-pyrrolo[3,4-b]pyridin-5-one (optical isomer)], 99%. Same read-out and setting: the result for `O=C1c2cc(-c3nnc(C(F)F)o3)ccc2CN1[C@@H]1CCC(F)(F)C[C@@H]1c1ccccn1` (relative stereo) [Example 590, 6-(5-(difluooromethyl)-1,3,4-oxadiazol-2-yl)-2-((1R*,2S*)-4,4-difluoro-2-(pyridin-2-yl)cyclohexyl)isoindolin-1-one (optical isomer)] reads 100%.
